Entries after “also recorded” stand apart in the source; their conditions may differ.
Experiments:
C57BL/6 wild type mice [1] = test: Quantitative mRNA expression in mouse hearts by real-time PCR; type: in vivo
Procedure: FIG. 4E show quantitative mRNA expression in mouse hearts performed by real-time PCR. Individual gene expression was calculated by ΔΔcq and standardized by housekeeping gene 18s.
Angiotensin converting enzyme (ACE) gene expression was calculated by ΔΔcq and standardized by housekeeping gene 18s.
(§1) Experiment of C57BL/6 wild type mice. Mice underwent 5/6 nephrectomy surgery. Mice were fed 14% protein diet (0 weeks to 2 weeks), 23% protein diet (2 weeks to 6 weeks), and 40% protein diet (6 weeks to 8 weeks). Mice drank 1% NaCl water one week to six weeks after second surgery, and dimethylthiourea (DMTU; UT-A inhibitor) was administered by osmotic mini pump.
Since an increase in UT-A is associated with an increase in fibrosis proteins in vitro and in vivo, experiments were performed to determine whether inhibition of UT-A could prevent fibrosis in the heart of CKD mice. […] The phenotypic characteristics of mice were determined 8 weeks after completing the 5/6Nx (Table 1).
In uremic cardiomyopathy, increased cardiac fibrosis and hypertrophy are associated with upregulation of the renin-angiotensin system (RAS). To identify whether the ability of UT-A to reduce cardiac fibrosis is related to the RAS, the mRNA expression of angiotensin converting enzyme (ACE) was measured in the heart of 4 groups of mice.

Rats = settings: cited from earlier work
C57BL/6 wild type mice [2] = test: Heart size and heart weight at sacrifice (cardiac hypertrophy); type: in vivo, mouse
Procedure: White bar is vehicle and black bar is DMTU treatment.
as §1
(§2) Since an increase in UT-A is associated with an increase in fibrosis proteins in vitro and in vivo, experiments were performed to determine whether inhibition of UT-A could prevent fibrosis in the heart of CKD mice. Mice were randomly divided into four cohorts: sham+vehicle, sham+DMTU, 5/6Nx+vehicle, and 5/6Nx+DMTU. Mini-pumps were used for DMTU administration (100 mg/kgBW/day). The phenotypic characteristics of mice were determined 8 weeks after completing the 5/6Nx (Table 1).
Inhibition of UT-A suppressed CKD-induced increases in SBP in 5/6Nx mice (5/6Nx+DMTU: 119±3 mmHg vs 5/6Nx+vehicle: 130±2 mmHg, P<0.05) (FIG. 3A). […] DMTU suppressed the CKD-induced increase in heart weight (5/6Nx+DMTU: 3.74±0.12 mg/g vs 5/6Nx+vehicle: 4.50±0.09 mg/g, P<0.001) (FIG. 3D). Since the BW could be altered by either edema (in CKD) or dehydration (by DMTU), dry brain weight was also used to normalize heart weight.

C57BL/6 wild type mice [3] = test: Masson's Trichrome staining of mouse heart tissues, fibrosis area; type: in vivo; settings: 5/6Nx + DMTU, 5/6Nx+vehicle 1.04±0.15
Procedure: Pictures were observed by ×200 magnification. Scale bar is 100 μm. Dark color indicated fibrosis in Masson's staining.
as §1, §2

C57BL/6 wild type mice [4] = test: Phenotypic characteristics of sham and 5/6Nx mice 8 weeks after 5/6 nephrectomy, DMTU by osmotic mini pump; type: in vivo, mouse; settings: for 24 hr intake volume/BW / 24 hr urine osmolality / 24 hr urine volume/BW / BUN / Plasma osmolality / Urine urea / Volume in-out balance/BW: 8 weeks
Procedure: as §1, §2

UT-A1 = biological target: T1, UT-A1 (Homo sapiens, UniProt Q15849); settings: cited from earlier work
T1 sequence (Q15849 1-920): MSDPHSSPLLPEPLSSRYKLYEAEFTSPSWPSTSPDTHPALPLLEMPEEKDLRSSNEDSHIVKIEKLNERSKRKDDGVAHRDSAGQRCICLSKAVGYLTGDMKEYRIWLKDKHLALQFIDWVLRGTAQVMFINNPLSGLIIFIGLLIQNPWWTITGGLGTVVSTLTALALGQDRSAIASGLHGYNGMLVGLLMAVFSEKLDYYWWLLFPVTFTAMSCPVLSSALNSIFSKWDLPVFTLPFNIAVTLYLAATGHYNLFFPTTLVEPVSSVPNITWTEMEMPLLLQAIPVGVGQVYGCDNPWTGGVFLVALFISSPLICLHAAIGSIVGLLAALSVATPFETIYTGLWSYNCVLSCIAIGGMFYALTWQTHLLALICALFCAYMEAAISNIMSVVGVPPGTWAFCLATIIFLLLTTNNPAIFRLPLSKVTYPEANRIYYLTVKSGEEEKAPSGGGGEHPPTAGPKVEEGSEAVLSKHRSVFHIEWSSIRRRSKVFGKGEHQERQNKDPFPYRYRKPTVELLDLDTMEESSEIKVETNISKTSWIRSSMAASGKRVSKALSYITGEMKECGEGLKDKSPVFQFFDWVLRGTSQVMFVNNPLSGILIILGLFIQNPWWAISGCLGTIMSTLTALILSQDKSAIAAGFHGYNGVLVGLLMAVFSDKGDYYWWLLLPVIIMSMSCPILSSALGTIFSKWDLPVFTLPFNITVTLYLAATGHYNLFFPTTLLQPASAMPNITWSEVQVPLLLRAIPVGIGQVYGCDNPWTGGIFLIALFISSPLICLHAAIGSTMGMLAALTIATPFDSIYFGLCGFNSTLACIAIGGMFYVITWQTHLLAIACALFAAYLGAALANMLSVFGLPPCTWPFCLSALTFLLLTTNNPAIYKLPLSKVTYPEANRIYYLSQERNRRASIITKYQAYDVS

C57BL/6 wild type mice [5] = test: Cardiac echocardiographic analysis of mice after 5/6 nephrectomy and DMTU treatment; type: in vivo, mouse; settings: for LVEDV: LV end-diastolic volume; for LVESD: LV end-systolic dimension; for LVESV: LV end-systolic volume; for FS: fractional shortening; for IVSd / IVSs: intraventricular septum; for PWd / PWs: posterior wall thickness; for LVMI: ratio of LVM to BW
Procedure: as §1, §2
Both intraventricular septum (IVS) and posterior wall thicknesses (PW) were greatest in 5/6Nx+vehicle than all other three groups (Table 2).

C57BL/6 wild type mice [6] = test: Blood pressure by tail cuff method at 8 weeks after the second surgery; type: in vivo, mouse
Procedure: Systolic blood pressure at 8 weeks after the second surgery.
as §1, §2

C57BL/6 wild type mice [7] = test: Immunohistochemistry staining of heart for collagen type 1 and α-SMA; type: in vivo, mouse; settings: 5/6Nx + DMTU compared with 5/6Nx + vehicle
Procedure: as §1, §2

UT-B = biological target: T2, UT-B (Homo sapiens, UniProt Q13336); settings: cited from earlier work
T2 sequence (Q13336 1-389): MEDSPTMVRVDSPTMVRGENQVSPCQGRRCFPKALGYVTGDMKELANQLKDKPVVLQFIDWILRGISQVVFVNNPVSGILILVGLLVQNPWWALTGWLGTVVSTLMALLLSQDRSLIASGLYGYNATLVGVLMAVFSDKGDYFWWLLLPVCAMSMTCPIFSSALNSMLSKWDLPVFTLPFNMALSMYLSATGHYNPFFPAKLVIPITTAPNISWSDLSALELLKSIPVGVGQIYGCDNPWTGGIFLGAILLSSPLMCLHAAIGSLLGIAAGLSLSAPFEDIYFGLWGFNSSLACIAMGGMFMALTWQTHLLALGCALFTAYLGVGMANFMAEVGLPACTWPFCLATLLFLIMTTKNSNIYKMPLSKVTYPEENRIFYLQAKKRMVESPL

## CNC(=S)NC [DMTU, N,N′-dimethylthiourea]
C57BL/6 wild type mice [1]; 5/6Nx + DMTU compared with 5/6Nx + vehicle
  mRNA expression of fibrosis related genes (collagen 1A1, collagen 4A1, fibronectin and α-SMA) in heart: less than 5/6Nx+vehicle mice
C57BL/6 wild type mice [1]; sham and 5/6Nx groups, DMTU vs vehicle
  mRNA expression of angiotensin converting enzyme (ACE) in heart: significantly abolished ACE expression; also recorded: suppressed an increase in ACE mRNA expression
Rats
  Diuresis compared with furosemide: greater diuresis
  Side effects like hyponatremia or hypokalemia: did not show side effects
C57BL/6 wild type mice [2]; 5/6Nx + DMTU, vs 5/6Nx+vehicle 1.34±0.09, P<0.01
  Ratio of heart weight to dry brain weight: 1.04 ± 0.04 mg/mg
C57BL/6 wild type mice [2]; 5/6Nx + DMTU, vs 5/6Nx+vehicle 4.50±0.09, P<0.001
  Ratio of heart weight/body weight (BW): 3.74 ± 0.12 mg/g
C57BL/6 wild type mice [2]; 5/6Nx mice, at sacrifice
  CKD-induced increase in heart size: suppressed the CKD-induced increase in heart size
C57BL/6 wild type mice [3]
  Percentage of fibrosis area in heart: 0.57±0.07%
C57BL/6 wild type mice [4]; 5/6Nx + DMTU
  Volume in-out balance relative to 5/6Nx+vehicle: the balance was less
  24 hr intake volume/BW: 0.265 ± 0.028 mL/g
  24 hr urine osmolality: 1206 ± 116 mOsmol/kg H2O
  24 hr urine volume/BW: 0.170 ± 0.013 mL/g
  BUN: 63.7 ± 4.6 mg/dL
  Plasma osmolality: 329 ± 3 mOsmol/kg H2O
  Urine urea: 926 ± 95 mmol/L
  Volume in-out balance/BW: 0.114 ± 0.014 mL/g
C57BL/6 wild type mice [4]; CKD mice
  Increase of urine volume and decrease of urine osmolality: absent
C57BL/6 wild type mice [4]; either sham or CKD mice
  BUN values with DMTU treatment vs. vehicle treatment: no significant difference
C57BL/6 wild type mice [4]; sham + DMTU
  24 hr intake volume/BW: 0.129 ± 0.006 mL/g
  24 hr urine osmolality: 2378 ± 133 mOsmol/kg H2O
  24 hr urine volume/BW: 0.058 ± 0.010 mL/g
  BUN: 31.3 ± 2.8 mg/dL
  Plasma osmolality: 322 ± 1 mOsmol/kg H2O
  Urine urea: 1555 ± 128 mmol/L
  Volume in-out balance/BW: 0.081 ± 0.010 mL/g
C57BL/6 wild type mice [4]; sham mice
  Effect on urine osmolality: decreased urine osmolality
  Effect on urine volume: increased urine volume
UT-A1
  Inhibition of UT-A1: inhibits
C57BL/6 wild type mice [5]; 5/6Nx + DMTU
  CKD-induced increases of LVESD, LVEDV, LVESV and LVMI: eliminated these increases
  LVEDD: 3.43 ± 0.06 mm
  LVM: 89 ± 3 mg
  LVEDV: 62.6 ± 0.3 µL
  LVESD: 2.77 ± 0.02 mm
  LVESV: 23.6 ± 0.3 µL
  FS: 30 ± 0.5 %
  IVSd: 0.49 ± 0.01 mm
  IVSs: 1.08 ± 0.00 mm
  PWd: 0.55 ± 0.01 mm
  PWs: 0.52 ± 0.01 mm
  LVMI: 3.44 ± 0.13 mg/g
C57BL/6 wild type mice [5]; CKD heart
  Percentage of fractional shortening (FS), effect: restored FS to the normal range
C57BL/6 wild type mice [5]; mice of the cohorts other than 5/6Nx+vehicle (incl. sham+DMTU, 5/6Nx+DMTU)
  Pericardial effusion: none of the mice
C57BL/6 wild type mice [5]; sham + DMTU
  LVEDD: 3.80 ± 0.18 mm
  LVM: 97 ± 7 mg
  LVEDV: 57.3 ± 1.8 µL
  LVESD: 2.45 ± 0.14 mm
  LVESV: 21.8 ± 1.1 µL
  FS: 33 ± 0.5%
  IVSd: 0.44 ± 0.00 mm
  IVSs: 1.05 ± 0.00 mm
  PWd: 0.53 ± 0.00 mm
  PWs: 0.52 ± 0.03 mm
  LVMI: 3.73 ± 0.15 mg/g
C57BL/6 wild type mice [6]; 5/6Nx + DMTU, 8 weeks, vs 5/6Nx+vehicle 130±2, P<0.05
  SBP (systolic blood pressure): 119±3 mmHg
C57BL/6 wild type mice [6]; sham or 5/6Nx mice
  Effect on DBP (diastolic blood pressure): did not affect DBP
C57BL/6 wild type mice [7]
  Collagen type I and α-smooth muscle actin (SMA) proteins in heart: less
UT-B
  Inhibition of UT-B: inhibits

From US20210106547A1, “Managing Cardiovascular Conditions Associated with Kidney Disease” (Emory University, priority 2019, published 2021)
